{"source": "patent US20230111925A1", "about": "“FIBROTIC DISEASE MECHANISM AND THERAPEUTIC DRUG THEREFOR” (GUANGZHOU WOMEN AND CHILDREN'S MEDICAL CENTER, priority 2020, published 2023)", "key": {"[1]": {"tested_on": "DSS-induced mouse colitis", "experiment": "DSS-induced mouse colitis"}, "RNA virus VSV": {"tested_on": "RNA virus VSV", "type": "in vivo, mice", "settings": "Dipyridamole 30 mg/kg i.p. from day -3; VSV 10^8 PFU/g tail vein day 0 and day 4"}, "[2]": {"tested_on": "lung epithelial cells A549 infected with SEV", "experiment": "IFN-β induction in SeV-infected lung epithelial cells A549", "type": "cell-based", "settings": "vs DMSO"}, "[3]": {"tested_on": "normal intestinal fibroblast CCD-18Co", "experiment": "Proliferation and apoptosis of normal intestinal fibroblast CCD-18Co", "type": "cell-based"}, "[4]": {"tested_on": "CCD-18Co cells stimulated by TGF-β and TNF-α", "experiment": "Intestinal interstitial fibrosis model in CCD-18Co cell line (Western blot)", "type": "cell-based", "settings": "0.5 μM ITI-214 added one hour in advance; TGF-β 10 ng/ml and TNF-α 40 ng/ml, 48 hours"}, "[5]": {"settings": "Icariin 50 mg/kg i.p. twice a day days 4-7, vs model group"}, "[6]": {"settings": "5 mg/kg i.p. twice a day days 4-15, 2% DSS days 0-10, vs model group"}, "[7]": {"settings": "PF-05085727 3 mg/kg i.p. twice a day days 4-9"}, "[8]": {"settings": "PF-05085727 3 mg/kg i.p. twice a day days 4-9, vs model group"}, "[9]": {"settings": "Mardepodect hydrochloride 1 mg/kg i.p. twice a day days 4-7, vs model group"}, "[10]": {"settings": "A549, SEV MOI=1, 0, 16 and 24 hours"}, "[11]": {"settings": "10 mg/kg i.p. twice a day days 4-15, 2% DSS days 0-10"}, "[12]": {"settings": "10 mg/kg i.p. twice a day days 4-15, 2% DSS days 0-10, vs model group"}, "[13]": {"settings": "PF-04447943 3 mg/kg i.p. twice a day days 4-12, vs model group"}, "[14]": {"settings": "ITI214 3 mg/kg i.p. twice a day days 4-8, 2% DSS days 0-7"}, "[15]": {"settings": "Roflumilast 3 mg/kg i.p. twice a day days 4-9, vs model group"}}, "note": "Counter-ions that a name gives are not always drawn.", "data": [{"compound": "Icariin", "values": [{"measurement": "weight loss of colitis", "setting": "[1]; Icariin 50 mg/kg i.p. twice a day days 4-7, 2% DSS days 0-7, from day 6", "result": "significantly inhibited"}, {"measurement": "colonic tissue structure, epithelial structure (H&E)", "setting": "[1]; [5]", "result": "significantly restore"}, {"measurement": "fibrosis (colon H&E)", "setting": "[1]; [5]", "result": "reduced"}, {"measurement": "infiltration of inflammatory cells (colon H&E)", "setting": "[1]; [5]", "result": "decreased"}]}, {"compound": "COc1ccc(C(=O)N2CCN(c3ccc4c(c3)CCC(=O)N4)CC2)cc1OC", "note": "[Vesnarinone]", "values": [{"measurement": "weight changes", "setting": "[1]; 5 mg/kg i.p. twice a day days 4-15, 2% DSS days 0-10", "result": "did not decrease significantly"}, {"measurement": "colonic tissue structure, epithelial structure (H&E)", "setting": "[1]; [6]", "result": "significantly restore"}, {"measurement": "fibrosis (colon H&E)", "setting": "[1]; [6]", "result": "reduced"}, {"measurement": "infiltration of inflammatory cells (colon H&E)", "setting": "[1]; [6]", "result": "decreased"}]}, {"compound": "Cn1ncc(-c2nn(C)c3ncnc(N4CCC4)c23)c1-c1ccc(C(F)(F)F)cc1", "note": "[PF-05085727]", "values": [{"measurement": "colon length", "setting": "[1]; [7]", "result": "significantly improved"}, {"measurement": "disease activity index score, activity degree of the disease", "setting": "[1]; [7]", "result": "did not aggravate"}, {"measurement": "weight changes", "setting": "[1]; PF-05085727 3 mg/kg i.p. twice a day days 4-9, 2% DSS days 0-7", "result": "did not decrease significantly"}, {"measurement": "survival rate", "setting": "[1]; PF-05085727 3 mg/kg i.p. twice a day days 4-9, 2% DSS days 0-7, model group 40%", "result": 100, "unit": "%"}, {"measurement": "colonic tissue structure, epithelial structure (H&E)", "setting": "[1]; [8]", "result": "significantly restored"}, {"measurement": "fibrosis (colon H&E)", "setting": "[1]; [8]", "result": "reduced"}, {"measurement": "inflammatory cells (colon H&E)", "setting": "[1]; [8]", "result": "reduced"}]}, {"compound": "Cn1cc(-c2ccncc2)c(-c2ccc(OCc3ccc4ccccc4n3)cc2)n1", "note": "[Mardepodect hydrochloride]", "values": [{"measurement": "weight changes", "setting": "[1]; Mardepodect hydrochloride 1 mg/kg i.p. twice a day days 4-7, 2% DSS days 0-7", "result": "did not decrease the weight significantly"}, {"measurement": "colonic tissue structure, epithelial structure (H&E)", "setting": "[1]; [9]", "result": "significantly restore"}, {"measurement": "fibrosis (colon H&E)", "setting": "[1]; [9]", "result": "reduced"}, {"measurement": "infiltration of inflammatory cells (colon H&E)", "setting": "[1]; [9]", "result": "decreased"}]}, {"compound": "OCCN(CCO)c1nc(N2CCCCC2)c2nc(N(CCO)CCO)nc(N3CCCCC3)c2n1", "note": "[Dipyridamole]", "values": [{"measurement": "infiltration of pulmonary inflammation in lung and alveolar injury (H&E staining of mouse lung)", "setting": "RNA virus VSV", "result": "significantly reduced"}, {"measurement": "mRNA level of the type I interferon IFN-β (fluorescence quantitative PCR)", "setting": "[2]; A549, PDE inhibitor 5 μM, SEV MOI=1, 24 hours", "result": "significantly up-regulate"}, {"measurement": "mRNA level of IFN-β (fluorescence quantitative PCR)", "setting": "[2]; [10]", "result": "significantly promoted"}, {"measurement": "protein level of IFN-β in the supernatants (ELISA)", "setting": "[2]; [10]", "result": "significantly promoted"}, {"measurement": "apoptosis of fibroblasts (flow early/late apoptosis analysis)", "setting": "[3]; 20 μM DIP, 48 hours", "result": "promoted"}, {"measurement": "proliferation of fibroblasts (crystal violet staining)", "setting": "[3]; 20 μM DIP, 48 hours", "result": "inhibited"}]}, {"compound": "O=C1CCc2cc(OCCCCc3nnnn3C3CCCCC3)ccc2N1", "note": "[Cilostazol]", "values": [{"measurement": "weight changes", "setting": "[1]; [11]", "result": "did not decrease significantly"}, {"measurement": "colonic tissue structure, epithelial structure (H&E)", "setting": "[1]; [12]", "result": "significantly restore"}, {"measurement": "fibrosis (colon H&E)", "setting": "[1]; [12]", "result": "reduced"}, {"measurement": "infiltration of inflammatory cells (colon H&E)", "setting": "[1]; [12]", "result": "decreased"}]}, {"compound": "C[C@@H]1CN(Cc2ncccn2)C[C@H]1c1nc2c(cnn2C2CCOCC2)c(=O)[nH]1", "note": "[PF-04447943]", "values": [{"measurement": "colon length", "setting": "[1]; PF-04447943 3 mg/kg i.p. twice a day days 4-12", "result": "significantly improve"}, {"measurement": "weight loss", "setting": "[1]; PF-04447943 3 mg/kg i.p. twice a day days 4-12, 2% DSS days 0-10, from day 6", "result": "significantly inhibited"}, {"measurement": "survival rate", "setting": "[1]; PF-04447943 3 mg/kg i.p. twice a day days 4-12, 2% DSS days 0-10, model group 40%", "result": 100, "unit": "%"}, {"measurement": "disease activity index score, experimental colitis", "setting": "[1]; PF-04447943 3 mg/kg i.p. twice a day days 4-12, from day 6", "result": "significantly inhibited"}, {"measurement": "colonic tissue structure, epithelial structure (H&E)", "setting": "[1]; [13]", "result": "significantly restore"}, {"measurement": "fibrosis (colon H&E)", "setting": "[1]; [13]", "result": "reduced"}, {"measurement": "infiltration of inflammatory cells (colon H&E)", "setting": "[1]; [13]", "result": "decreased"}]}, {"compound": "Cc1[nH]c(=O)c(C#N)cc1-c1ccncc1", "note": "[Milirinone]", "values": [{"measurement": "weight changes", "setting": "[1]; [11]", "result": "did not decrease significantly"}, {"measurement": "colonic tissue structure, epithelial structure (H&E)", "setting": "[1]; [12]", "result": "significantly restore"}, {"measurement": "fibrosis (colon H&E)", "setting": "[1]; [12]", "result": "reduced"}, {"measurement": "infiltration of inflammatory cells (colon H&E)", "setting": "[1]; [12]", "result": "decreased"}]}, {"compound": "CN1C(=O)c2c(nn(Cc3ccc(-c4cccc(F)n4)cc3)c2Nc2ccccc2)N2C1=N[C@@H]1CCC[C@@H]12.O=P(O)(O)O", "note": "[ITI214]", "values": [{"measurement": "protein expression levels of α-SMA, COL1A2 and FAP in cells (Western blot)", "setting": "[4]", "result": "inhibited"}, {"measurement": "apoptosis of fibroblasts (flow early/late apoptosis analysis)", "setting": "[3]; 0.5 μM ITI-214, 48 hours", "result": "promoted"}, {"measurement": "proliferation of fibroblasts", "setting": "[3]; 0.5 μM ITI-214, 48 hours", "result": "effectively inhibit"}, {"measurement": "colon length", "setting": "[1]; [14]", "result": "significantly improved"}, {"measurement": "disease activity index score (DAI score), severity of colitis", "setting": "[1]; [14]", "result": "significantly reduced"}, {"measurement": "fibrosis (colon H&E)", "setting": "[1]; [14]", "result": "inhibits"}, {"measurement": "infiltration of inflammatory cells (colon H&E)", "setting": "[1]; [14]", "result": "reduces"}, {"measurement": "structures of colon epithelium and lamina propria (H&E)", "setting": "[1]; [14]", "result": "significantly restored"}, {"measurement": "weight changes of mice", "setting": "[1]; ITI214 3 mg/kg i.p. twice a day days 4-8, 2% DSS days 0-7, day 7", "result": "significantly increased"}, {"measurement": "survival rate", "setting": "[1]; ITI214 3 mg/kg i.p. twice a day days 4-8, 2% DSS days 0-7, model group 50%", "result": 80, "unit": "%"}]}, {"compound": "O=C(Nc1c(Cl)cncc1Cl)c1ccc(OC(F)F)c(OCC2CC2)c1", "note": "[Roflumilast]", "values": [{"measurement": "weight changes", "setting": "[1]; Roflumilast 3 mg/kg i.p. twice a day days 4-9, 2% DSS days 0-7", "result": "did not decrease significantly"}, {"measurement": "colonic tissue structure, epithelial structure (H&E)", "setting": "[1]; [15]", "result": "significantly restore"}, {"measurement": "fibrosis (colon H&E)", "setting": "[1]; [15]", "result": "reduced"}, {"measurement": "infiltration of inflammatory cells (colon H&E)", "setting": "[1]; [15]", "result": "decreased"}]}]}
